Where only a bound is given, the exact number is not on record here.

For test [1], the target named is T1, Phosphatidylinositol 5-phosphate 4-kinase type-2 gamma (Homo sapiens) (UniProt Q8TBX8).
T1 sequence (whole entry): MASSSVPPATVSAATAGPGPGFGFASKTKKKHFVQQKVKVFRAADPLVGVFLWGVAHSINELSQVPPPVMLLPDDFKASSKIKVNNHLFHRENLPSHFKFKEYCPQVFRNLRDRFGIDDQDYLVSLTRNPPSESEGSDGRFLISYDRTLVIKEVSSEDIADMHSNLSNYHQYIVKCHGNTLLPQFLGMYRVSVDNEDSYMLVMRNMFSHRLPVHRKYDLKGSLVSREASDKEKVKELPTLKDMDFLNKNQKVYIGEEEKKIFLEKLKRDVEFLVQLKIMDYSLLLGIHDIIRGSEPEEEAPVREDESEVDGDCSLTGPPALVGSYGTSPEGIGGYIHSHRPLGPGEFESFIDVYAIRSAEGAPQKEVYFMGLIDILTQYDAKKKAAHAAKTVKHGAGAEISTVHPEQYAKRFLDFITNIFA
In words: Selectivity interaction (KinomeScan (DiscoverX)) EUB0000655a PIP4K2C. The settings on record: at 10 µM.

Test [2] has as its target T2, Histone-lysine N-methyltransferase EHMT1 (Homo sapiens) (UniProt Q9H9B1).
T2 sequence (whole entry): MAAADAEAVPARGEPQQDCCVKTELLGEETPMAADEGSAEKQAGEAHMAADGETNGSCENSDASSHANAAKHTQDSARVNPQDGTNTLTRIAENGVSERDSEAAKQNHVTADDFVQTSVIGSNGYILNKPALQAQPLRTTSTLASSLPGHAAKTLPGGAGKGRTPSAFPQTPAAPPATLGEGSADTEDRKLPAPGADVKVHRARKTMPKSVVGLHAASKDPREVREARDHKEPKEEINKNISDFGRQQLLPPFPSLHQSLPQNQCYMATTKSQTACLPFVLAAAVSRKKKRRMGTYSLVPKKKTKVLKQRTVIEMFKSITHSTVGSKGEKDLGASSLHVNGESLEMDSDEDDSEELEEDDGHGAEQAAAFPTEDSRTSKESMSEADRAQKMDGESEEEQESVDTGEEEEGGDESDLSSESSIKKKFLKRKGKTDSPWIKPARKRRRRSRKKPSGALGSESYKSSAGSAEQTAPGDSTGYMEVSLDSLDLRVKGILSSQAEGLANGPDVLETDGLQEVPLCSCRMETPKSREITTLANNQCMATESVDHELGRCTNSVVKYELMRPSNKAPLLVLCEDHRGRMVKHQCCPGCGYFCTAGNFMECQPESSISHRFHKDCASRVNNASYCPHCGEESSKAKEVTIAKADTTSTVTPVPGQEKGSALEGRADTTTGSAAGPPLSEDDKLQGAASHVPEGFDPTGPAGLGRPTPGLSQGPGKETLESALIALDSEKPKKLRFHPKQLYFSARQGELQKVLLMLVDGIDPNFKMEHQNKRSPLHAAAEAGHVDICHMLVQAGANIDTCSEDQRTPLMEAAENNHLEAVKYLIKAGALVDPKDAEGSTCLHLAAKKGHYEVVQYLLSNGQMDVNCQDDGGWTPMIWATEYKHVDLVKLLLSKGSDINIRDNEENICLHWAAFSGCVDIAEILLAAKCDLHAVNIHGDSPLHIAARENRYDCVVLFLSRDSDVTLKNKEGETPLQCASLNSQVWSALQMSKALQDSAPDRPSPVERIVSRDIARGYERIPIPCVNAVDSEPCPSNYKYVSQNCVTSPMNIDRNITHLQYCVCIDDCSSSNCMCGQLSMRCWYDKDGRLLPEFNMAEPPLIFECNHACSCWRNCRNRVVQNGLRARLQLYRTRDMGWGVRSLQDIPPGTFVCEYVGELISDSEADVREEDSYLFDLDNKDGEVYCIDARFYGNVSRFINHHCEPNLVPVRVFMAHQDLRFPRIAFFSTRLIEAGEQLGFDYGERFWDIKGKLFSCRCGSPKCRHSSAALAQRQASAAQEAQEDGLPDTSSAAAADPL
In words: Selectivity interaction (Transferase panel (protein, RNA, and DNA methyltransferases. and EP300 (acetyltransferase))) EUB0000270b EHMT1.

The test system of test [3] is Phosphatidylinositol 4,5-bisphosphate 3-kinase catalytic subunit alpha isoform (Homo sapiens), P42336 [H1047L]. The settings on record: at 10 µM.
Sequence of Phosphatidylinositol 4,5-bisphosphate 3-kinase catalytic subunit alpha isoform (Homo sapiens), P42336 [H1047L] (P42336 whole entry H1047L, canonical isoform): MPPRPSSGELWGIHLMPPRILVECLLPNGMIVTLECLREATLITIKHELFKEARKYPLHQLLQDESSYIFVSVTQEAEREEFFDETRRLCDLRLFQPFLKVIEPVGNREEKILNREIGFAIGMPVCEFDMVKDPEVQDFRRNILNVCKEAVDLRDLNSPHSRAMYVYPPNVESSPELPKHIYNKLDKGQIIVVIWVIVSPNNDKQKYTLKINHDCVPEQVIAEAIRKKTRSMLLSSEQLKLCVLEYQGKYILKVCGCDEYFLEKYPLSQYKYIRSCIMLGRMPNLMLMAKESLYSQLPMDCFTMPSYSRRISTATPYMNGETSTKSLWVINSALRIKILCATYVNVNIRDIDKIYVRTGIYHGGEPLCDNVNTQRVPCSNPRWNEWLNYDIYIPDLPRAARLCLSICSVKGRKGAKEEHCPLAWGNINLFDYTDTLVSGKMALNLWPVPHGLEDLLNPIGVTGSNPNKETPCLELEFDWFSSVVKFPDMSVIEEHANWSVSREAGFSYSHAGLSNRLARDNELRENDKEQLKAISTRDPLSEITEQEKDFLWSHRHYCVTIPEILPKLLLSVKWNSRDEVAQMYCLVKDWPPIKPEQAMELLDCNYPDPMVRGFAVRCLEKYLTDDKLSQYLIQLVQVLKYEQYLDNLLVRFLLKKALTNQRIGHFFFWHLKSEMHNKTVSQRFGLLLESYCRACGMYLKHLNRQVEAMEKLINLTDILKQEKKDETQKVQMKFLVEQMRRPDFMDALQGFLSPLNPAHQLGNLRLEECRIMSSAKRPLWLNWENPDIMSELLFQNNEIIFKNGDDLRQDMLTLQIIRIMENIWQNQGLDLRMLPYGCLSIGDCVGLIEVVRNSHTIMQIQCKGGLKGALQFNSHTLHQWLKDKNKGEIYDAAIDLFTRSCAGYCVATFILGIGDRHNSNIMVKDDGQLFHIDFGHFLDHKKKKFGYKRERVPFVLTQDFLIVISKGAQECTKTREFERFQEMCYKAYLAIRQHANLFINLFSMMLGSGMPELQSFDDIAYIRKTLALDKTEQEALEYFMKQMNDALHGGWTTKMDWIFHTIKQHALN
Test [4] addresses Serine/threonine-protein kinase MARK1 (Homo sapiens) (UniProt Q9P0L2). In words: Selectivity interaction (KinomeScan (DiscoverX)) EUB0001619a MARK1. Particulars: at 1 µM.
The target of test [5] is T3, Serine/threonine-protein kinase Sgk3 (Homo sapiens) (UniProt Q96BR1).
T3 sequence (whole entry): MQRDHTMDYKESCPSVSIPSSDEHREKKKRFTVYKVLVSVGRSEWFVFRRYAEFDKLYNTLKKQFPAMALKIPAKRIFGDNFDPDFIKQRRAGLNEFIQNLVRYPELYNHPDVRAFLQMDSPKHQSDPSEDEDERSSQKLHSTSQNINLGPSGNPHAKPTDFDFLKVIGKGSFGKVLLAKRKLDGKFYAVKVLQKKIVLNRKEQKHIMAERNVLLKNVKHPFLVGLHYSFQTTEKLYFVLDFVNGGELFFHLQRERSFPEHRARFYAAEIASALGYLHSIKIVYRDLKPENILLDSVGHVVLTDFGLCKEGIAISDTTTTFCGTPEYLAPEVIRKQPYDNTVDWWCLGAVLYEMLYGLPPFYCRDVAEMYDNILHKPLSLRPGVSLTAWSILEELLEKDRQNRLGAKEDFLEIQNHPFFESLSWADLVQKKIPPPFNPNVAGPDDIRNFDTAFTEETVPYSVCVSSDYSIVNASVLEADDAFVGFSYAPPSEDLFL
In words: Selectivity interaction (KinomeScan (DiscoverX)) EUB0000618a SGK3. Particulars: at 10 µM.

Sequence of Serine/threonine-protein kinase MARK1 (Homo sapiens) (Q9P0L2 whole entry, looked up): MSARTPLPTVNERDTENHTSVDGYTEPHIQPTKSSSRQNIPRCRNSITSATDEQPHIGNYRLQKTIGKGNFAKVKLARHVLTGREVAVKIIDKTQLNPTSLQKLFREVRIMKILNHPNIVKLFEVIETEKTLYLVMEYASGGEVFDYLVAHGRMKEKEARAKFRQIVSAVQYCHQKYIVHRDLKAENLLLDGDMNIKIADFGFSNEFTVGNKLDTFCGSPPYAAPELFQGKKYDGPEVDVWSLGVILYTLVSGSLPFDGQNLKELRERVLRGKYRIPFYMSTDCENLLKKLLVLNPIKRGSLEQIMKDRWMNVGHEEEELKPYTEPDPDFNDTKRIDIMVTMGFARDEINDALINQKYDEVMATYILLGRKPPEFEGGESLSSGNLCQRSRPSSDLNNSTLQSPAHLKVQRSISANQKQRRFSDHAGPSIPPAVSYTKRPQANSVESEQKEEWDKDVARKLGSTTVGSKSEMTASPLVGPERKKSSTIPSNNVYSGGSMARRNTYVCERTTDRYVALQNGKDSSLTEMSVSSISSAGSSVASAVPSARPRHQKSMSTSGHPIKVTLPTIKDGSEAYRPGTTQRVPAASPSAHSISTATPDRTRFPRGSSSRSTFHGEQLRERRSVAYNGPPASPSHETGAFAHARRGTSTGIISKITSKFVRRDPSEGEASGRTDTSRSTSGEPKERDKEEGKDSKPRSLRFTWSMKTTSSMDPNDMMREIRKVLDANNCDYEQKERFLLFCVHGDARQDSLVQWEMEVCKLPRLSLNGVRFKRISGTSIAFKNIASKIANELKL

`CN(C)CCOc1ccc(-c2nc(-c3ccncc3)c(-c3ccc4c(c3)CC/C4=N\O)[nH]2)cc1` gave a % of control in test [1] of 100%.

With `Cc1cc(CN)cc(C)c1-c1ncn(C)c1-c1cncn1C`, the figures for the % activity in test [2] (at 1 µM) and in test [2] (at 10 µM) were more than 90% and more than 80%, respectively.

In test [3], `CNC(=O)Nc1ccc(-c2nc(N3CC4CCC(C3)O4)c3cnn(C4CCC5(CC4)OCCO5)c3n2)cc1` came in with a % of control of 15%.

In turn, `N#Cc1cccc(-c2c[nH]c3ncnc(N4CCOCC4)c23)c1` yielded a % of control in test [4] of 91%.

For the compound `O[C@H]1CC[C@H](Nc2ncc3nc(Nc4c(F)cc(F)cc4F)n([C@H]4CCOC4)c3n2)CC1`, the % of control in test [5] is 100%.

The record behind these values is ChEMBL document CHEMBL5465560, “Selectivity Literature for EUbOPEN Chemogenomic Library” (2024).
